Key:
[1] = target: T1, HMGR enzyme (Homo sapiens, UniProt P04035); assay: Inhibition of HMGR enzyme activity (NADPH absorbance 340 nm); type: biochemical; conditions: acid form, 37° C.
T1 sequence (P04035 426-888 limits assumed): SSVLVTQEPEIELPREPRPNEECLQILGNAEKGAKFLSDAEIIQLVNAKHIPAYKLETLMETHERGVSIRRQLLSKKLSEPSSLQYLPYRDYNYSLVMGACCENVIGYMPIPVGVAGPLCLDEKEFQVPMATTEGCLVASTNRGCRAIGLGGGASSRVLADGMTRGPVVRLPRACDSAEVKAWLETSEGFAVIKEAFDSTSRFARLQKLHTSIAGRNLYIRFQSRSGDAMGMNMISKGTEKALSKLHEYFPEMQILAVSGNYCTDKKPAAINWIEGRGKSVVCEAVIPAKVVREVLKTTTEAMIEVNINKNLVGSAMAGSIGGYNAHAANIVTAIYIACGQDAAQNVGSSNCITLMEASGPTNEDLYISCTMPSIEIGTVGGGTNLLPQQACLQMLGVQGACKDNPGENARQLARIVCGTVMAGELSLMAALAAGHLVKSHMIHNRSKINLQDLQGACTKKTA
Method: Due to the nature of the compound, the degree of inhibition of the HMGR enzyme by compound NST0037 was determined since this enzyme is key in cellular cholesterol synthesis and in the physiological regulation of said synthesis. […] For the reaction, HMGR uses NADPH as a reducing agent and 3-hydroxy-3-methylglutaryl coenzyme A (HMGCoA) as a substrate, producing mevalonic acid, CoASH and NADP+. The reduction of the absorbance at which NADPH (340 nm) is absorbed is a direct measurement of the catalytic activity of HMGR and serves to calculate the inhibition percentages of different compounds. In order to take the HMGR inhibition, the assay was performed on a 96-well plate, with a total reaction volume of 200 μl. The reaction buffer (50 mM KH2PO4, 1 M KCl, 2 mg/ml Bovine Serum Albumin [BSA] and 5 mM DTT, at pH=7.3) was prepared at the time the reaction was conducted and was maintained at 37° C. […] The acid form of the compounds is used in all the cases.
The reduction of absorbance at 340 nm allows calculating the percentage of HMGR enzyme activity with respect to the control. The IC50 were determined by means of the Trimmed Spearman-Karber method (Version 1.5).

[2] = system: caspase 3/7; assay: Inhibition of camptothecin-induced activation of caspase 3/7 in SK-N-MC cells; type: cell-based, human; conditions: 50 μM CPT, 6 h
Method: The assay was performed on human neuroblastoma SK-N-MC cells in culture from the American Type Culture Collection (ATCC), in all cases strict rules of sterility were followed and the manipulation was performed in class II biological safety cabinets following European standard EN 12469. The cells were maintained in the following culture medium: Minimum Essential Medium Eagle (MEM) supplemented with 1 mM sodium pyruvate, 2 mM L-glutamine, 0.1 mM non-essential amino acids, 0.05 mg/ml gentamicin and 10% fetal bovine serum. The induction of apoptosis on the cells in culture was performed by means of incubation with camptothecin (CPT), which triggers cell apoptosis activation. The apoptosis was determined by means of the measurement of the activation of effector caspases, caspase 3 or caspase 7, for which a kit for the fluorometric detection of active caspase 3/7 (Apo-ONE® Homogeneous Caspase-3/7, Promega) was used. The active caspase 3 or 7 of the cells cause the rupture of a substrate, which leads to fluorescence emission, which is read by means of a fluorometer. The effect of the pretreatment of compound NST0037 at 10 and 40 μM on the activation of caspase 3/7 caused by 50 μM of camptothecin (CPT) in the SK-N-MC cells was thus analyzed. These cells, not exceeding 15 passages, were seeded on 96-well plates treated for adherent cells with a cell concentration of 5×10^4 cells/well, 3 wells of the plate were seeded for each condition of the assay. After 24 hours of cell incubation at 37° C. and 5% CO2, the pretreatment with NST0037 at 10 and 40 μM was performed. […] On the following day, fluorescence was measured (499/521 nm, […]).

[3] = system: CD1 mice inoculated with MPTP (acute); assay: Acute MPTP model of Parkinson's disease in mice; type: in vivo
Method: All the animals included for the experimental process were 12-week old males of the CD1 strain. The experiments were conducted strictly following the Guidance on the Operation of Animals (Scientific Procedures, Act. 1986). The animals had their respective quarantine period and were treated with maximum precaution to minimize possible contaminations during inoculations and handling.
Forty animals were used in this assay and the treatments were conducted with a volume of 100 μl, according to the following regimens: • i) PBS+PBS+PBS regimen: 10 animals were initially treated with PBS with a daily dose for 2 days by subcutaneous (s.c.) route, on the second day the animals were inoculated with 4 doses of PBS, at intervals of 2 hours by intraperitoneal (i.p.) route. For the next 7 days they were administered a daily dose of PBS by s.c. route. • ii) PBS+MPTP+PBS regimen: 10 animals were initially treated with a daily dose for 2 days of PBS by s.c. route, on the second day the animals were inoculated with 4 doses of MPTP at 20 mg/Kg, at intervals of 2 hours by i.p. route. For the next 7 days they were administered a daily dose of PBS by s.c. route. • iii) NST0037+MPTP+NST0037 regimen: 10 animals were initially treated with a daily dose for 2 days of NST0037 at 50 mg/kg by s.c. route, on the second day the animals were inoculated with 4 doses of MPTP at 20 mg/Kg, at intervals of 2 hours by i.p. route. For the next 7 days they were administered a daily dose of NST0037 at 50 mg/kg by s.c. route.
Before starting the treatments and once the treatment time of 7 days ended, the animals were subjected to a locomotor resistance test referred to as the Rotarod test for 2 minutes, recording the time the animals resisted walking over a cylinder which increased its speed from 4 to 40 r.p.m.
Before starting the treatments and once the treatment time of 7 days ended, the animals were subjected to a strength test in the so-called Grip-strength test, recording the strength of gripping a bar in grams exerted by the animals with the front paws in triplicate.
(§1) Once the treatment time of 7 days ended, the animals were sacrificed and the brains were dissected. The brain samples were processed and included in paraffin. For the analysis of neurodegeneration in the substantia nigra and the striatum, fluorescent Fluoro Jade B (FJB) staining was performed in 5 μm thick sagittal sections.
as §1, with “the presence of dopaminergic neurons” for “neurodegeneration”, “the immunohistochemistry against the tyrosine-hydroxylase (TH) protein” for “fluorescent Fluoro Jade B (FJB) staining”

[4] = NST0037+MPTP+NST0037, 50 mg/kg s.c., 7 days
[5] = NST0037+MPTP+NST0037 vs PBS+MPTP+PBS, 7 days

## CCC(CC)C(=O)O[C@H]1C[C@@H](C)C=C2C=C[C@H](C)[C@H](CC[C@@H]3C[C@@H](O)CC(=O)O3)[C@H]21 [NST0037, (1S,2S,6R,8S,8aR)-1,2,6,7,8,8a-hexahydro-3,7-dimethyl-8-[2-[(2R,4R)-tetrahydro-4-hydroxy-6-oxo-2H-pyran-2-yl]ethyl]-1-naphthalenyl-2-ethyl-butyrate]
[1]
  HMGR inhibition potency compared with atorvastatin: surprisingly close to that of more potent statin, atorvastatin
[2]; pretreatment 10 μM NST0037
  inhibition of caspase 3/7 with respect to camptothecin: 26%
[2]; pretreatment 40 μM NST0037
  inhibition of caspase 3/7 with respect to camptothecin: 33%
[3]; [4]
  motor resistance (Rotarod test): prevents the motor deterioration of the animals
  strength (Grip-strength test): prevents the loss of strength induced by MPTP
[3]; NST0037+MPTP+NST0037, 50 mg/kg s.c., MPTP 4 x 20 mg/Kg i.p.
  survival after acute administration of MPTP: promotes the survival of the animals
[3]; [5]
  dopaminergic neurons (tyrosine-hydroxylase) in substantia nigra and striatum: larger number of TH-positive cells in the substantia nigra as well as a higher labeling intensity in the striatum
  neurodegeneration (Fluoro Jade B) in substantia nigra and striatum: number of cells in degeneration and positive for FJB significantly lower

— patent publication US20140309295A1, “ANTIEPILEPTIC, HYPOCHOLESTEROLEMIC AND NEUROPROTECTIVE COMPOUND” (NEURON BIOPHARMA, S.A., priority 2009, published 2014)
